pIC50: −log10 of the molar value.
Each compound was assayed against T1, trypsin-activated recombinant human renin (Homo sapiens, UniProt P00797) (assay: Renin fluorescence assay (internally quenched peptide substrate)). Settings: compounds I*.
T1 sequence (P00797 67-406): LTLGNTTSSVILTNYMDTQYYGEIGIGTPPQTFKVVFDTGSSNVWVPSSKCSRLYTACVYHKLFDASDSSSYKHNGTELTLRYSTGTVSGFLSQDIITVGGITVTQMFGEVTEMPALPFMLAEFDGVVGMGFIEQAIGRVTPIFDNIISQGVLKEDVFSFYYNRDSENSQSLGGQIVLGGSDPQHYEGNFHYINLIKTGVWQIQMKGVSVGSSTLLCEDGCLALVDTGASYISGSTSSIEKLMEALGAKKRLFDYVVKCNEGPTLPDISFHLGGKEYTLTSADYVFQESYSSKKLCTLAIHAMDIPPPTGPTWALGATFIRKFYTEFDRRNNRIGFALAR
Type: biochemical
Description: The sequence of this peptide corresponds to the sequence of human angiotensinogen. The following test protocol can be used. All reactions are carried out in a flat bottom white opaque microtiter plate. A 4 μL aliquot of 400 μM renin substrate (DABCYL-γ-[…]) in 192 μL assay buffer (50 mM BES, 150 mM NaCl, 0.25 mg/mL bovine serum albumin, pH7.0) is added to 4 μL of test compound in DMSO at various concentrations ranging from 10 μM to 1 nM final concentrations. Next, 100 μL of trypsin-activated recombinant human renin (final enzyme concentration of 0.2-2 nM) in assay buffer is added, and the solution is mixed by pipetting. The increase in fluorescence at 495 nm (excitation at 340 nm) is measured for 60-360 minutes at rt using a Perkin-Elmer Fusion microplate reader. The slope of a linear portion of the plot of fluorescence-increase as a function of time is then determined, and the rate is used for calculating percent inhibition in relation to uninhibited control. […] (Wang G. T. et al. Anal. Biochem. 1993, 210, 351; Nakamura, N. et al. J. Biochem. (Tokyo) 1991, 109, 741; Murakami, K. et al. Anal Biochem. 1981, 110, 232).
In the case of `CNC[C@H](CC1CCCCC1)NC(=O)N1CCC[C@@H]([C@@](C)(OCC(=O)NC)c2cccc(Cl)c2)C1` [I*-25a, (R)-3-((R)-1-(3-chlorophenyl)-1-(2-(methylamino)-2-oxoethoxy)ethyl)-N—((S)-1-cyclohexyl-3-(methylamino)propan-2-yl)piperidine-1-carboxamide], the pIC50 was < 7.30.
`CNC[C@H](CC1CCOCC1)NC(=O)N1CCC[C@@H]([C@@H](OCCNC(=O)OC)c2cccc(F)c2)C1` [I*-26a, methyl 2-((R)-(3-fluorophenyl)((R)-1-((S)-1-(methylamino)-3-(tetrahydro-2H-pyran-4-yl)propan-2-ylcarbamoyl)piperidin-3-yl)methoxy)ethylcarbamate] was tested, and the pIC50 was > 7.30.
`CNC[C@@H](NC(=O)N1CCC[C@@H]([C@@H](OCCNC(=O)OC)c2cccc(F)c2)C1)[C@@H](O)C1CCCC1` [I*-27a, methyl 2-((R)-((R)-1-((1S,2R)-1-cyclopentyl-1-hydroxy-3-(methylamino)propan-2-ylcarbamoyl)piperidin-3-yl)(3-fluorophenyl)methoxy)ethylcarbamate] was tested, and the pIC50 was > 8.00.
In the case of `COC(=O)NCCO[C@@H](c1cccc(F)c1)[C@@H]1CCCN(C(=O)NC[C@@H](N)C[C@H]2CCCCOC2)C1` [I*-28a, methyl 2-((R)-((R)-1-((S)-2-amino-3-((R)-oxepan-3-yl)propylcarbamoyl)piperidin-3-yl)(3-fluorophenyl)methoxy)ethylcarbamate], the pIC50 was > 8.00.
In the case of `CNC[C@H](CC1CCCC1)NC(=O)N1CCC[C@@H]([C@@H](OCCNC(=O)OC)c2cccc(Cl)c2)C1` [I*-29a, methyl 2-((R)-(3-chlorophenyl)((R)-1-((S)-1-cyclopentyl-3-(methylamino)propan-2-ylcarbamoyl)piperidin-3-yl)methoxy)ethylcarbamate], the pIC50 was > 9.00.
With `CCNC(=O)CO[C@@H](c1cccc(Cl)c1)[C@@H]1CCCN(C(=O)N[C@H](CNC)C[C@H]2CCCOC2)C1` [I*-30a, (R)-3-((R)-(3-chlorophenyl)(2-(ethylamino)-2-oxoethoxy)methyl)-N—((S)-1-(methylamino)-3-((R)-tetrahydro-2H-pyran-3-yl)propan-2-yl)piperidine-1-carboxamide] the pIC50 was > 7.70.
In the case of `CCNC(=O)CO[C@@H](c1cccc(Cl)c1)[C@@H]1CCCN(C(=O)N[C@H](CNC)CC2CCOCC2)C1` [I*-31a, (R)-3-((R)-(3-chlorophenyl)(2-(ethylamino)-2-oxoethoxy)methyl)-N—((S)-1-(methylamino)-3-(tetrahydro-2H-pyran-4-yl)propan-2-yl)piperidine-1-carboxamide], the pIC50 was < 7.30.
`CNC[C@H](CC1CCCCC1)NC(=O)N1CCC[C@@H]([C@@H](OCCNC(=O)OC)c2nc(C)cs2)C1` [I*-32a, methyl 2-((R)-((R)-1-((S)-1-cyclohexyl-3-(methylamino)propan-2-ylcarbamoyl)piperidin-3-yl)(4-methylthiazol-2-yl)methoxy)ethylcarbamate] was tested, and the pIC50 was > 8.00.
With `CNC[C@H](CC1CCCCC1)NC(=O)N1CCC[C@@H]([C@H](OCCNC(=O)OC)c2nc(C)cs2)C1` [I*-33a, methyl 2-((S)-((R)-1-((S)-1-cyclohexyl-3-(methylamino)propan-2-ylcarbamoyl)piperidin-3-yl)(4-methylthiazol-2-yl)methoxy)ethylcarbamate] the pIC50 was < 7.30.
`CCC(C)(C)C[C@@H](CNC)NC(=O)N1CCC[C@@H]([C@@H](OCCNC(=O)OC)c2cccc(Cl)c2)C1` [I*-34a, methyl 2-((R)-(3-chlorophenyl)((R)-1-((S)-4,4-dimethyl-1-(methylamino)hexan-2-ylcarbamoyl)piperidin-3-yl)methoxy)ethylcarbamate] was tested, and the pIC50 was > 8.00.
With `COCC(C)(C)C[C@H](N)CNC(=O)N1CCC[C@@H]([C@@H](OCCNC(=O)OC)c2cccc(Cl)c2)C1` [I*-35a, methyl 2-((R)—((R)-1-((S)-2-amino-5-methoxy-4,4-dimethylpentylcarbamoyl)piperidin-3-yl)(3-chlorophenyl)methoxy)ethylcarbamate] the pIC50 was > 7.70.
In the case of `CNC[C@H](CC1CCOCC1)NC(=O)N1CCC[C@@H]([C@@H](OCCNC(=O)OC)c2cc(C)cc(C)c2)C1` [I*-36a, methyl 2-((R)-(3,5-dimethylphenyl)((R)-1-((S)-1-(methylamino)-3-(tetrahydro-2H-pyran-4-yl)propan-2-ylcarbamoyl)piperidin-3-yl)methoxy)ethylcarbamate], the pIC50 was > 7.30.
In the case of `CNC[C@H](CC1CCOCC1)NC(=O)N1CCC[C@@H]([C@@H](OCCNC(=O)OC)c2cc(C)ccc2C)C1` [I*-37a, methyl 2-((R)-(2,5-dimethylphenyl)((R)-1-((S)-1-(methylamino)-3-(tetrahydro-2H-pyran-4-yl)propan-2-ylcarbamoyl)piperidin-3-yl)methoxy)ethylcarbamate], the pIC50 was > 7.70.
`COC(=O)NCCO[C@@H](c1cccc(Cl)c1)[C@@H]1CCCN(C(=O)NC[C@@H](N)COc2ccccc2)C1` [I*-38a, methyl 2-((R)—((R)-1-((R)-2-amino-3-phenoxypropylcarbamoyl)piperidin-3-yl)(3-chlorophenyl)methoxy)ethylcarbamate] was tested, and the pIC50 was > 7.30.
For `CNC[C@H](CC1CCCCCC1)NC(=O)N1CCC[C@@H]([C@@H](OCCNC(=O)OC)c2cccc(F)c2)C1` [I*-39a, methyl 2-((R)-((R)-1-((S)-1-cycloheptyl-3-(methylamino)propan-2-ylcarbamoyl)piperidin-3-yl)(3-fluorophenyl)methoxy)ethylcarbamate], the pIC50 was > 9.00.
In the case of `CNC[C@H](CC1CCCCC1)NC(=O)N1CCC[C@@H]([C@@H](OCCNC(=O)OC)c2cc(F)ccc2C)C1` [I*-40a, methyl 2-((R)-((R)-1-((S)-1-cyclohexyl-3-(methylamino)propan-2-ylcarbamoyl)piperidin-3-yl)(5-fluoro-2-methylphenyl)methoxy)ethylcarbamate], the pIC50 was > 9.00.
With `CCNC[C@H](CC1CCCCC1)NC(=O)N1CCC[C@@H]([C@@H](OCCNC(=O)OC)c2cccc(F)c2)C1` [I*-41a, methyl 2-((R)-((R)-1-((S)-1-cyclohexyl-3-(ethylamino)propan-2-ylcarbamoyl)piperidin-3-yl)(3-fluorophenyl)methoxy)ethylcarbamate] the pIC50 was > 8.00.
`CNC[C@@H](CC1(C)CCCCC1)NC(=O)N1CCC[C@@H]([C@@H](OCCNC(=O)OC)c2cccc(F)c2)C1` [I*-42a, methyl 2-((R)-(3-fluorophenyl)((R)-1-((R)-1-(methylamino)-3-(1-methylcyclohexyl)propan-2-ylcarbamoyl)piperidin-3-yl)methoxy)ethylcarbamate] was tested, and the pIC50 was < 7.30.
With `CNC[C@H](CC1(C)CCCCC1)NC(=O)N1CCC[C@@H]([C@@H](OCCNC(=O)OC)c2cccc(F)c2)C1` [I*-43a, methyl 2-((R)-(3-fluorophenyl)((R)-1-((S)-1-(methylamino)-3-(1-methylcyclohexyl)propan-2-ylcarbamoyl)piperidin-3-yl)methoxy)ethylcarbamate] the pIC50 was > 8.00.
For `CNC[C@H](CC1CCCCC1)NC(=O)N1CCC[C@@H]([C@@H](OCCCC(=O)NC)c2cccc(Cl)c2)C1` [I*-45a, (R)-3-((R)-(3-chlorophenyl)(4-(methylamino)-4-oxobutoxy)methyl)-N—((S)-1-cyclohexyl-3-(methylamino)propan-2-yl)piperidine-1-carboxamide], the pIC50 was > 7.30.
In the case of `CNC[C@H](CN1CCCCC1=O)NC(=O)N1CCC[C@@H]([C@@H](OCCNC(=O)OC)c2cccc(F)c2)C1` [I*-46a, methyl 2-((R)-(3-fluorophenyl)((R)-1-((R)-1-(methylamino)-3-(2-oxopiperidin-1-yl)propan-2-ylcarbamoyl)piperidin-3-yl)methoxy)ethylcarbamate], the pIC50 was < 7.30.
With `CNC[C@H](CC1CCCOCC1)NC(=O)N1CCC[C@@H]([C@@H](OCCNC(=O)OC)c2cccc(F)c2)C1` (stereo partly drawn) [I*-47a, methyl 2-((R)-(3-fluorophenyl)((3R)-1-((S)-1-(methylamino)-3-(oxepan-4-yl)propan-2-ylcarbamoyl)piperidin-3-yl)methoxy)ethylcarbamate] the pIC50 was > 8.00.
`CNC[C@@H](NC(=O)N1CCC[C@@H]([C@@H](OCCNC(=O)OC)c2cccc(F)c2)C1)[C@@H](O)C1CCCCC1` [I*-48a, methyl 2-((R)-((R)-1-((1S,2R)-1-cyclohexyl-1-hydroxy-3-(methylamino)propan-2-ylcarbamoyl)piperidin-3-yl)(3-fluorophenyl)methoxy)ethylcarbamate] was tested, and the pIC50 was > 8.00.
For `CNC[C@H](CC1CCOCC1)NC(=O)N1CCC[C@@H]([C@@H](OCCNC(=O)OC)c2cc(C)ccc2F)C1` [I*-49a, methyl 2-((R)-(2-fluoro-5-methylphenyl)((R)-1-((S)-1-(methylamino)-3-(tetrahydro-2H-pyran-4-yl)propan-2-ylcarbamoyl)piperidin-3-yl)methoxy)ethylcarbamate], the pIC50 was < 7.30.

Source: patent US8487108B2, “Piperidinyl carbamate intermediates for the synthesis of aspartic protease inhibitors” (Vitae Pharmaceuticals, Inc., priority 2005, dated 2013)
